US7888355B2, “Compositions and methods for inhibiting growth and metastasis of melanoma” (Burnham Institute for Medical Research, priority 2007, dated 2011)
Like-named read-outs stand apart in the source and are kept apart here.

Tests used:
[1] = tested on: human diploid fibroblasts (IMR90); test: Toxicity on human diploid fibroblasts; type: cell-based
Protocol: Characterization of CSL and AIGA effects on mouse melanoma cells. The structures of AIGA and CSL are depicted in FIGS. 1a and 1b. AIGA was tested for cytotoxicity at concentrations ranging between 0.1 and 2 μM, whereas CSL was used at a concentration of 0.01 to 0.3 μM. SW1 cells or normal melanocytes were seeded on 96 well plates and 24 h late, cells were treated with the indicated concentrations of ATF2 50-100 peptide, AIGA, or CSL for 20 h. ATF2 50-100 peptide (cloned in mammalian expression vector in frame with penetratin was transfected with the aid of lipofectamine) was used as a positive control. ATP levels were used as an indicator of cell viability and were measured using the ATPLITE ATP detection assay kit. The number of surviving cells upon AIGA treatment was normalized to the number of surviving cells under the control treatment, and the normalized number was designated as the “% Viability.” Results shown in FIGS. 1c-1f represent 3 experiments. Treatment of SW1 melanoma cells with 1 μM of AIGA reduced the viability of melanoma cells to 10%, (FIG. 1c). Treatment of the SW1 cells with 0.05 μM of CSL reduced the viability of melanoma cells to 50%, and 0.1 μM reduced it to 10% (FIG. 1d). […] Normal melanocytes and fibroblasts were used as a control.

[2] = tested on: NF-κB transcriptional activity; test: 2-NFκ-B-luciferase reporter assay in SW1 cells; type: cell-based, mouse; conditions: 8 h
Protocol: (§1) Constructs and inhibitors. An ATF2 peptide (aa 51-100) was cloned into HA-tagged pcDNA3 vector as previously described (Bhoumik et al., Cancer Res 64:8222-30, 2004). 5×Jun2tk-Luc (marker for ATF2 transcriptional activities), 5×TRE-tk-Luc (marker for AP1/c-Jun transcriptional activities) and 2×NF-B-Luc were previously described (Bhoumik et al., J Clin Invest 110:643-50, 2002). Pharmacological inhibitor of JNK (SP600125) was purchased (EMD biosciences) and added (5 μM) to cultured cells as indicated in Results.
(§2) Transcriptional analysis. Transient transfection of different reporter constructs into melanoma cells was performed using LIPOFECTAMINE PLUS transfection reagent (Invitrogen). Luciferase activity was determined as previously described (Bhoumik et al., PNAS 101:4222-7, 2004).
To assess whether CSL may affect the transcriptional activities of genes other than ATF2 and c-Jun, possible changes in transcriptional activities of NF-κB were monitored. Transcriptional activation of NFκ-B was assessed using the 2-NFκ-B-luciferase assay. Briefly, SW1 cells were transfected with the 2-NFκ-B-luciferase plasmid and 24 h later, cells were treated with the indicated concentrations of AIGA or CSL for 8 h before proteins were prepared and level of luciferase activity was measured. ATF250-100 peptide was used as a positive control. Data shown represent results from 2 experiments. […]

normal mouse melanocytes = test: Normal melanocyte viability, ATPLITE; type: cell-based; conditions: 0.1 μM, 20 h
Protocol: Cell lines. Mouse melanoma (SW1) and human melanoma (LU1205) cells were maintained in DMEM supplemented with 10% FBS, L-glutamine and antibiotics. The human melanoma cell lines MEWO and WM115 were maintained in RPMI supplemented with 10% FBS and antibiotics. Primary mouse melanocytes were cultured in F-12 media supplemented with 10% FBS, antibiotics, IBMX (isobuthyl-methylxantine), bovine pituitary extract, and TPA.
(§3) Mitochondrial activity and apoptosis. Cells were exposed to the chemicals for 12-48 hours as indicated in Results. To measure changes in mitochondrial activity reflective of general cell viability, the ATPLITE ATP detection assay was used according to the manufacturer's recommendations (Perkin Elmer). Apoptosis analysis was performed by flow cytometry of PI-stained cells. The percentage of cells to the left of the diploid G0/1 peak, characteristic of hypodiploid cells that have partially lost DNA, was calculated as percentage of apoptotic cells (Bhoumik et al., PNAS 101:4222-7, 2004). Analysis of changes in Caspase 8 expression pattern was performed using immunoblot analysis.
Characterization of CSL and AIGA effects on mouse melanoma cells. The structures of AIGA and CSL are depicted in FIGS. 1a and 1b. […] ATP levels were used as an indicator of cell viability and were measured using the ATPLITE ATP detection assay kit. […]

[3] = tested on: ATF2 transcriptional activity; test: Jun2-luciferase reporter assay in SW1 cells; type: cell-based; conditions: Mus musculus, Jun2-Luc, 8 h, read-out: concentration required to cause about 50% inhibition of ATF2 transcriptional activity
Protocol: as §1, §2
These compounds were next assessed for their impact on ATF2 transcriptional activity. The effect of AIGA on ATF2 transcriptional activities was measured by the Jun2-luciferase assay. SW1 cells were transfected with the Jun2-luciferase plasmid and 24 h later cells were treated with the indicated concentrations of AIGA or CSL for 8 h before proteins were prepared and level of luciferase activity was measured. ATF2 51-100 peptide was used as a positive control. Data shown represent results from 3 experiments. […]

SW1 melanoma cells = test: Apoptosis by FACS of PI-stained SW1 cells; type: cell-based, mouse; conditions: 48 h
Protocol: as §3
The finding that CSL and AIGA reduced cell viability in melanoma was made using the ATPLITE assay, which monitors the degree of mitochondrial ATP release, a marker for mitochondrial activity. To directly assess possible changes in the apoptosis of melanoma cells following their exposure to CSL or AIGA, FACS analysis of the melanoma cells was performed 48 h after treatment. […] Treatment with 1 μM AIGA caused 15% apoptosis in these melanoma cultures (FIG. 4a). Treatment with CSL caused 13% apoptosis at a dose of 0.5 μM and 35% apoptosis at a dose of 1 μM (FIG. 4b). Consistent with these finding is the activation of caspases 8, a classic marker for apoptosis, which was observed upon addition of these compounds, by Western blot analysis. SW1 cells were treated with 0.5 μM AIGA, 0.5 μM CSL, 1.0 μM CSL for 24 hours. Staurosporin was used as a positive control. Immunoblot analysis using caspase 8 antibody monitored full length and cleaved forms (active) of caspase 8. β-actin was used as a loading control.

caspase 8 = test: Caspase 8 immunoblot in SW1 cells; type: cell-based, mouse; conditions: 0.5 μM AIGA, 0.5 or 1.0 μM CSL, 24 hours
Protocol: as §3
Immunoblot analysis. Proteins prepared from cells at the indicated time points using RIPA buffer and 75 μg were separated on SDS-PAGE followed by immunoblot analysis using the antibodies indicated. […]
The finding that CSL and AIGA reduced cell viability in melanoma was made using the ATPLITE assay, which monitors the degree of mitochondrial ATP release, a marker for mitochondrial activity. […] Immunoblot analysis using caspase 8 antibody monitored full length and cleaved forms (active) of caspase 8. β-actin was used as a loading control.

Structure (SMILES) | toxic effect on human diploid fibroblasts (IMR90) [1] | NF-κB transcriptional activity [2] | toxicity on normal mouse melanocytes (normal mouse melanocytes) [%] | IC50 [3] [nM] | % apoptosis of SW1 melanoma cells (SW1 melanoma cells; 1 μM) [%] | cleaved (active) forms of caspase 8 (caspase 8) | toxic effect on human diploid fibroblasts (IMR90) ([1]; data not shown) | % apoptosis of SW1 melanoma cells (SW1 melanoma cells; 0.5 μM) [%]
CC(=O)Oc1c2c(c(CC=C(C)C)c3c1C(=O)C1=C[C@@H]4CC5C(C)(C)OC(C/C=C(\C)C(=O)O)(C4=O)[C@@]15O3)OC(C)(CCC=C(C)C)C=C2 (stereo partly shown) [AIGA, Acetyl isogambogic acid] | Neither CSL nor AIGA elicited toxic effect | dose-dependent inhibition | 40 | ~500 | 15 | increase in intensity of the cleaved forms caspase 8 |  | 
CC1=C(O)C(=O)C=C2C1=CC=C1[C@@]2(C)CC[C@@]2(C)[C@@H]3C[C@](C)(C(=O)O)CC[C@]3(C)CC[C@]12C [Celastrol] |  | dose-dependent inhibition | 10 | ~50 | 35 | increase in intensity of the cleaved forms caspase 8 | Neither CSL nor AIGA elicited toxic effect | 13
